Article PMC4147343, “Icotinib antagonizes ABCG2-mediated multidrug resistance, but not the pemetrexed resistance mediated by thymidylate synthase and ABCG2” (Oncotarget, 2014)
Changes are numbered by the printed parent chain.

How the values were obtained:
ABCG2 [1] = target: T1, ABCG2 (Homo sapiens, UniProt Q9UNQ0); experiment: competition of […]-IAAP photoaffinity labeling in crude membranes; also ATPase stimulation ([…] of maximum at […]); type: binding
T1 construct: wild-type ABCG2 in crude membranes of MCF-7 FLV1000 cells
T1 sequence (Q9UNQ0 1-655): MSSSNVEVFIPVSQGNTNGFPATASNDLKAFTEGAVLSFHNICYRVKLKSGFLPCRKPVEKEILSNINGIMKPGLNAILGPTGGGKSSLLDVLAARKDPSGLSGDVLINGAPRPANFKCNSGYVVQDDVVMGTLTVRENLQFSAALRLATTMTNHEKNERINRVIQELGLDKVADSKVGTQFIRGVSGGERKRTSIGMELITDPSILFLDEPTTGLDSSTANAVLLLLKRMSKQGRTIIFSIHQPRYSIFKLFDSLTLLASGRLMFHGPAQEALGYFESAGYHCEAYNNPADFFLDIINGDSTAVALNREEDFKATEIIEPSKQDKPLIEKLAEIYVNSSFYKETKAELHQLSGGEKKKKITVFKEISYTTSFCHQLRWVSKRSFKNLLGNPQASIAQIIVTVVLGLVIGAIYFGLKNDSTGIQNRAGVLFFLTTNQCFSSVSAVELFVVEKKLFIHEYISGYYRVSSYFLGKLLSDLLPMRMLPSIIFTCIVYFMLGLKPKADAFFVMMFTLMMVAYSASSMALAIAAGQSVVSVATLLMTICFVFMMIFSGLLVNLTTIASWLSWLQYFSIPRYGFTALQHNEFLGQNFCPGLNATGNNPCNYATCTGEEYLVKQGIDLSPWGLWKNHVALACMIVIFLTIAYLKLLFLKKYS

ABCG2 [2] = target: T2, ABCG2 (Homo sapiens, UniProt Q9UNQ0, R482G); experiment: [3H]-mitoxantrone accumulation in transfected cells ([…]); type: cell-based
T2 construct: full-length ABCG2 in transfected HEK293 cells (ABCG2-482-G2)
T2 sequence (Q9UNQ0 1-655 R482G): T1 sequence (Q9UNQ0 1-655) with R482G

IC50 (ABCG2 [1]): 1610 nM
Compound: C#Cc1cccc(Nc2ncnc3cc4c(cc23)OCCOCCOCCO4)c1 [Icotinib]
[3H]-mitoxantrone accumulation in transfected cells (1.0 and 5.0 μM) (ABCG2 [2]): significantly increased intracellular accumulation of [^3H]-MX in both the NCI-H460 and NCI-H460/MX20 cells, as well as the ABCG2-482-R2, ABCG2-482-G2
